The source of these data is US11691992B2 (Anacor Pharmaceuticals, Inc., priority 2017, dated 2023).

Structures are written as SMILES. pIC50: −log10 of the molar value.

This assay relates to STIB719/ILRAD560 T. vivax (drug sensitive) strain. The assay can be described thus: Ex vivo Alamar Blue 48 h drug sensitivity assay for T. vivax. The settings on record: Trypanosoma vivax, ex vivo bloodstream forms from mouse, 45 hrs + 3 hrs resazurin, read-out: IC50: I Hypoxanthine Incorporation T. vivax STIB 719/ILRA D 560, 2 d. It counts as cell-based. On the procedure:
Example 109. Ex Vivo Alamar Blue 48 h Drug Sensitivity Assay for T. vivax
[…] Test compounds were prepared as 10 mg/mL DMSO stocks for each assay run. Compounds were assayed in at least three separate, independent test runs and an 11-point dilution curve was used to determine the IC50 values. Bloodstream form trypanosomes were propagated and harvested from a highly parasitemic mouse (via cardiac puncture) and were incubated with test compounds for 45 hrs at 37° C. in a humidified atmosphere containing 5% CO2, supported in HMI media containing 20% bovine serum. […] Plates were then read using a fluorescent plate reader (Spectramax, Gemini XS, Bucher Biotec, Basel, Switzerland) using an excitation wavelength of 536 nm and an emission wavelength of 588 nm. Data points were averaged to generate sigmoidal dose-response curves and IC50 values were determined using Softmax Pro 5.2 software.

As for `O=C(Nc1ccc2c(c1)B(O)OC2)c1cn(-c2ccc(F)cc2)nn1` [Example 60, 1-(4-Fluorophenyl)-N-(1-hydroxy-1,3-dihydrobenzo[c][1,2]oxaborol-6-yl)-1H-1,2,3-triazole-4-carboxamide], the pIC50 is 6.30 to 6.70.
